According to patent publication US11475578B2, “Method for analyzing behavior of cell, and use thereof” (TEIKYO UNIVERSITY, priority 2018, dated 2022):

What was measured:
[1] = tested on: epidermal keratinocytes; experiment: Monitoring of culture conditions by automatic cell tracking of epidermal keratinocyte colonies; format: cell-based, human; settings: 10 ng/ml EGF added to the medium
Experimental: Human epidermal keratinocytes originating in neonate (purchased from KURABO) were cultured under the conditions of 37° C. and 10% CO2 using the mouse 3T3 fibroblasts treated with mitomycin C as feeder cells (refer to the reference for details of the method).
The cultured epidermal keratinocytes were subcultured on a 35-mm glass bottom dish, and time-lapse imaging was performed under the conditions of 37° C. and 10% CO2 in which imaging was automatically performed every 5 minutes with Olympus FV10i.
The automatic tracking system was applied to monitoring of culture conditions of epidermal keratinocytes (obtained and cultured in the same manner as that of Example 1-1).
Behaviors of epidermal keratinocytes under different culture conditions were compared in the same manner as that of Example 1-2. The cell locomotions were compared. Those of the case where the medium was exchanged on the day 4 of the culture (feeding) and the case where the medium was not exchanged (no feeding) were compared. […] In the lower diagrams of FIG. 14, positions of the nuclei at each time point are shown with lines.
In the culture system of the inventors of the present invention, epidermal keratinocytes show a spiral migration pattern in colonies. As clearly seen from FIG. 15, the trajectory lines in 2D images (upper side) and 3D images (lower side) twisted. […]

[2] = tested on: epidermal keratinocytes; settings: as previously reported [7]; cited from earlier work

## epidermal growth factor [EGF, epidermal growth factor (EGF) (Up state, #01-107) added to the culture medium]
[1]
  migration speed: did not change
[1]; without EGF, spiral migration pattern in colonies
  migration pattern: changed
[2]
  migration of epidermal keratinocytes: induces migration of epidermal keratinocytes to the outside
